Data as given in patent publication US20160130630A1, “METHOD FOR DETECTING CAMPYLOBACTER” (JNC CORPORATION, priority 2014, published 2016).

Experiments:
Campylobacter bacteria = assay: growth inhibition of Campylobacter bacteria by cephamycin antibiotics; assay type: cell-based
ESBL-producing bacteria = assay: growth inhibition of ESBL-producing bacteria; assay type: cell-based

With `CO[C@@]1(NC(=O)Cc2cccs2)C(=O)N2C(C(=O)O)=C(COC(N)=O)CS[C@@H]21` [Cefoxitin] the “inhibition of growth of Campylobacter bacteria” value (Campylobacter bacteria) was “does not inhibit growth” and the “inhibition of growth of ESBL-producing bacteria” value (ESBL-producing bacteria) was “inhibits the growth”.
